In ChEMBL document CHEMBL1800000, “Identification of non-amidine inhibitors of acid-sensing ion channel-3 (ASIC3)” (Bioorg Med Chem Lett, 2011):
Calls of active or inactive are those of the source. The rule behind the calls is not given here.

Experiments:
[1] = target: T1, Acid-sensing ion channel 3 (Homo sapiens, UniProt Q9UHC3); assay: Inhibition of ASIC3 assessed as inhibition of peak current by electrophysiology method
T1 sequence (Q9UHC3 whole entry): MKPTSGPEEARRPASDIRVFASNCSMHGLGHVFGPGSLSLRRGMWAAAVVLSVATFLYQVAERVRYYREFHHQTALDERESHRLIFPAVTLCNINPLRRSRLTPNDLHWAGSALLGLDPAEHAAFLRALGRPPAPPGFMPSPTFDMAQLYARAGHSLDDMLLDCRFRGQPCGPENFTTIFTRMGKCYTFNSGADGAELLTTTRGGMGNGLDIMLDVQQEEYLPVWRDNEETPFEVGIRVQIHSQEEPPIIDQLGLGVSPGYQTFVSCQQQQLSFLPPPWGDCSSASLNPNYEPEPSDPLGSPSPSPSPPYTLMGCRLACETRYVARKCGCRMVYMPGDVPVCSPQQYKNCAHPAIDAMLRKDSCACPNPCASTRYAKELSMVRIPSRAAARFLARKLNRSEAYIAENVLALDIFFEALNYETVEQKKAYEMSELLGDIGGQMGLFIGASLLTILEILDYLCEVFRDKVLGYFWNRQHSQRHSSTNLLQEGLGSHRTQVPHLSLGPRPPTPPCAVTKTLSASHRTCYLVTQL

[2] = Ratio of drug level in brain to plasma in […]; assay type: ADME; details: rat, read-out: BPR
[3] = Ratio of drug level in brain to plasma in Sprague-Dawley rat at 100 mg/kg, po; assay type: ADME, organism-based; set-up: dose 100 mg/kg, route oral; details: read-out: BPR
[4] = Plasma concentration in Sprague-Dawley rat at 100 mg/kg, po after 30 mins; assay type: ADME, organism-based; set-up: dose 100 mg/kg, route oral
[5] = tested on: Rattus norvegicus; assay: Antihyperalgesic effect in complete Freund's adjuvant-induced Sprague-Dawley rat inflammatory pain model assessed as reversal of mechanical hypersensitivity at 100 mg/kg, po after 30 mins; assay type: functional, organism-based; set-up: dose 100 mg/kg
[6] = tested on: Rattus norvegicus; assay: Induction of sedative activity in Sprague-Dawley rat at 100 mg/kg, po; assay type: organism-based; set-up: dose 100 mg/kg, route oral; details: in vivo
[7] = tested on: Brain; assay: Drug uptake in Sprague-Dawley rat brain at 100 mg/kg, po; assay type: ADME, organism-based; set-up: dose 100 mg/kg, route oral; details: in vivo, read-out: Drug uptake
[8] = tested on: Rattus norvegicus; assay: Toxicity in Sprague-Dawley rat brain assessed as lethargy at 100 mg/kg, po; assay type: organism-based; set-up: dose 100 mg/kg, route oral; details: in vivo
[9] = target: T2, Acid-sensing ion channel 1 (Homo sapiens, UniProt P78348); assay: Inhibition of ASIC1a
T2 sequence (P78348 whole entry): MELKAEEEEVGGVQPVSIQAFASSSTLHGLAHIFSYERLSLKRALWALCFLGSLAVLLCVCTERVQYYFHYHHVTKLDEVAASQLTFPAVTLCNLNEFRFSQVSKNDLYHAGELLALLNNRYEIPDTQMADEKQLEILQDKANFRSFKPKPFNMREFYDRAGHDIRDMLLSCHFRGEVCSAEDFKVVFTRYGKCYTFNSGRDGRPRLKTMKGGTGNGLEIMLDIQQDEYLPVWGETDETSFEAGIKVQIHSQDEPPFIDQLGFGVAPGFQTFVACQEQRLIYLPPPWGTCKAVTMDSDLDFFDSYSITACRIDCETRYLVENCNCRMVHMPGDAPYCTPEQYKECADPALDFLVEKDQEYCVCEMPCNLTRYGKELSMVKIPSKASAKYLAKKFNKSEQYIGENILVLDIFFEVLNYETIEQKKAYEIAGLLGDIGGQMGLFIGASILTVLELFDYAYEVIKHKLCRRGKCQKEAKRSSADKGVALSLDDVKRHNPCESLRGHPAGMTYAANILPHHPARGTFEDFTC

[10] = Inhibition of dopamine receptor
[11] = Inhibition of adrenergic receptor
[12] = Inhibition of serotonin receptor
[13] = Inhibition of muscarinic receptor

CC(C)N1CCc2ccc(C#Cc3ccc4c(Cl)c(CN)sc4c3)cc2C1
IC50 [1]: 310 nM

CCN1CCc2ccc(C#Cc3ccc4c(Cl)c(CN)sc4c3)cc2C1
IC50 [1]: 230 nM

CC1c2cc(C#Cc3ccc4c(Cl)c(CN)sc4c3)ccc2CCN1C (stereo unspecified)
IC50 [1]: 270 nM

CN(C)C1CCCc2c(C#Cc3ccc4c(Cl)c(CN)sc4c3)cccc21 (stereo unspecified)
IC50 [1]: 230 nM

CN1CCc2ccc(C#Cc3ccc4c(Cl)c(CN)sc4c3)cc2C1
IC50 [1]: 680 nM

NCc1sc2cc(C#Cc3cccc4c3CCCC4N3CCCC3)ccc2c1Cl (stereo unspecified)
IC50 [1]: 2500 nM

CC(C)(C)OC(=O)N1CCc2ccc(C#Cc3ccc4c(Cl)c(CN)sc4c3)cc2C1
IC50 [1]: > 50000 nM

CN(C)C1CCc2c(C#Cc3ccc4c(Cl)c(CN)sc4c3)cccc21 (stereo unspecified)
IC50 [1]: 190 nM

N=C(N)c1ccc2cc(C#Cc3ccccc3)ccc2c1
IC50 [1]: 6300 nM

NCc1sc2cc(C#Cc3ccc4c(c3)CNCC4)ccc2c1Cl
Kp [2]: 15.4 | Kp [3]: 6 | concentration at 0.5 h [4]: 3.6 µM | IC50 [1]: 220 nM | Activity [5]: Active | Activity [6]: Toxic | concentration [7]: 14 µM | Activity [8]: Toxic | IC50 [9]: 224 nM

NCc1sc2cc(C#Cc3ccccc3)ccc2c1Cl
IC50 [1]: 2800 nM

NCc1sc2cc(C#Cc3ccc4c(c3)CN(CC(F)(F)F)CC4)ccc2c1Cl
IC50 [1]: > 50000 nM

CC(c1cccc(C#Cc2ccc3c(Cl)c(CN)sc3c2)c1)N(C)C (stereo unspecified)
IC50 [1]: 4300 nM

NCc1ccc2cc(C#Cc3ccccc3)ccc2c1
IC50 [1]: 4800 nM

NCc1sc2cc(C#Cc3ccc4c(c3)CN(CC(F)F)CC4)ccc2c1Cl
IC50 [1]: 10200 nM

CC(C)C1c2cc(C#Cc3ccc4cc(C(=N)N)ccc4c3)ccc2CCN1C (stereo unspecified)
Kp [2]: 2.6 | IC50 [1]: 460 nM | IC50 [10]: < 10000 nM | IC50 [11]: < 10000 nM | IC50 [12]: < 10000 nM | IC50 [13]: < 10000 nM

NCc1sc2cc(C#Cc3ccc4c(c3)CN(Cc3ccccc3)CC4)ccc2c1Cl
IC50 [1]: 17100 nM

N=C(N)c1sc2cc(C#Cc3ccccc3)ccc2c1Cl
IC50 [1]: 3400 nM
